Patent publication US12357644B2, “Acetyl salicylic acid composition for intravenous administration, its storage, production and use” (HYLORIS DEVELOPMENTS SA, priority 2022, dated 2025)
≈ marks a conversion by molar mass, not a printed value. Where “and” joins values, the source holds several entries; their conditions need not be identical. Identical values can stand only once. Like-named read-outs stand apart in the source and are kept apart here.

How the values were obtained:
Type in all cases: physicochemical
[1] = Reconstitution testing of ASA in buffer diluents; details: gamma irradiated ASA
Description: The material produced in the radiation and spray drying experiments was tested in reconstitution studies and compared to non-sterile, crystalline acetyl salicylic acid.
The buffer systems were tested for reconstitution of 325.0 mg gamma irradiated acetyl salicylic acid powder in 5 or 10 ml reconstitution fluid. Different buffer strengths were screened. […]

[2] = Solution pH before and after addition of ASA to medium
Description: (§1) Prior to spray drying experiments, the solution pH of different solvents and the saturation solubility of ASA in different solvents was screened. The acidified mediums were prepared as follows:
(§2) 8.5 ml of hydrochloric acid (about 35% v/v) was transferred into 900 ml of water and diluted to 1000 ml with water. 10.0 ml of this solution was diluted to 1000 ml with water. The pH of the solution was noted.
(§3) 8.5 ml of hydrochloric acid (about 35% v/v) was transferred into 900 mL 96% ethanol and diluted to 1000 ml with water. 10.0 ml of this solution was diluted to 1000 ml with 96% ethanol. The pH of the solution was noted.
(§4) 8.5 ml of hydrochloric acid (about 35% v/v) was transferred into 900 mL Tertiary butyl alcohol and diluted to 1000 ml with Tertiary butyl alcohol. 10.0 ml of this solution was diluted to 1000 ml with 96% Tertiary butyl alcohol. The pH of the solution was noted.
(§5) 8.5 ml of hydrochloric acid (about 35% v/v) was transferred into 900 ml water and diluted to 1000 ml with water. 10.0 ml of this solution was diluted to 1000 ml with water. […] The pH of the solution was noted.
(§6) ASA has more solubility in non-aqueous media compared to aqueous media and ASA dissolves better in ethanol compared to tertiary butyl alcohol however it also has higher salicylic acid content (Tables 6 and 7). Once it is acidified the salicylic acid levels are lowered.

[3] = Terminal sterilization by autoclaving, degradation of ASA; details: autoclaving at 121° C. for 20 mins
Description: In yet another alternative, the first component comprises an autoclaved terminally sterilized acetyl salicylic acid particulate powder. The terminally sterilized material may be obtained by autoclaving at 121° C. for 20 mins.
Alternatively, the first component was prepared by filling acetyl salicylic acid into vials and terminally sterilizing the ASA filled vials for 20 minutes at 121° C. A skilled person would not expect that a two-component system can be based on autoclaved ASA due to an expected incompatibility with heat.

[4] = Saturated solubility of ASA after 1 hour shaking in a medium selection; details: for solubility thermodynamic at 1 h: thermodynamic from solid, read-out: Individual concentration at saturation (Cs), Aspirin (A)
Description: as §1, §2, §3, §4, §5, §6

[5] = buffer —, purified water Ad 10 g, 10 mL

pH after reconstitution ([1]; Carbonate - NaOH 0.15M): 6.254 | 325 mg ASA dissolves? ([1]; Carbonate - NaOH 0.2M, 10 mL): YES - | pH after reconstitution ([1]; Carbonate - NaOH 0.2M, 10 mL): 9.160 | 325 mg ASA dissolves? ([1]; Carbonate - NaOH 0.25, 10 mL): YES - | pH after reconstitution ([1]; Carbonate - NaOH 0.25, 10 mL): 9.646 | Time needed to dissolve (±) ([1]; Carbonate - NaOH 0.25, 10 mL, (3 min) + <1 min): <1 min | 325 mg ASA dissolves? ([1]; Carbonate - NaOH 0.5M, 5 mL): YES - | Time needed to dissolve (±) ([1]; Carbonate - NaOH 0.5M, 5 mL): 3 min | pH after reconstitution ([1]; Carbonate - NaOH 0.5M, 5 mL): 7.534 | 325 mg ASA dissolves? ([1]; Carbonate - NaOH 1M, 5 mL): YES - | Time needed to dissolve (±) ([1]; Carbonate - NaOH 1M, 5 mL): <3 min | pH after reconstitution ([1]; Carbonate - NaOH 1M, 5 mL): 9.308 | 325 mg ASA dissolves? If yes, in 5 or 10 mL? ([1]; Carbonate-NaOH 0.025M, Ad 10 g): YES - 5 mL | Time needed to dissolve (±) ([1]; Carbonate-NaOH 0.025M, 5 mL): 0.5 min | pH after reconstitution ([1]; Carbonate-NaOH 0.025M, 5 mL): 9.233 | pH after reconstitution ([1]; NaOH 0.1M): 4.199 | 325 mg ASA dissolves? If yes, in 5 or 10 mL? ([1]; NaOH 0.25M): YES - 10 mL | pH after reconstitution ([1]; NaOH 0.25M, 10 mL): 7.099 | Time needed to dissolve (±) ([1]; NaOH 0.25M, 10 mL, (3 min) + <1 min): <1 min | 325 mg ASA dissolves? If yes, in 5 or 10 mL? ([1]; NaOH 0.3M): YES - 10 mL | Time needed to dissolve (±) ([1]; NaOH 0.3M, 10 mL, printed as (3 min) + 1 min): 1 min | 325 mg ASA dissolves? If yes, in 5 or 10 mL? ([1]; NaOH 0.4M): YES - 10 mL | pH after reconstitution ([1]; NaOH 0.4M, 10 mL): 12.103 | Time needed to dissolve (±) ([1]; NaOH 0.4M, 10 mL, (3 min) + <1 min): <1 min | 325 mg ASA dissolves? If yes, in 5 or 10 mL? ([1]; NaOH 0.5M): YES - 5 mL | Time needed to dissolve (±) ([1]; NaOH 0.5M, 5 mL): <1 min | pH after reconstitution ([1]; NaOH 0.5M, 5 mL): 7.229 | 325 mg ASA dissolves? If yes, in 5 or 10 mL? ([1]; NaOH 1M): YES - 5 mL | Time needed to dissolve (±) ([1]; NaOH 1M, 5 mL): <0.25 min | pH after reconstitution ([1]; NaOH 1M, 5 mL): 12.814 | 325 mg ASA dissolves? ([1]; TBST 1M, pH of medium 7.574, 10 mL): YES - | Time needed to dissolve (±) ([1]; TBST 1M, 10 mL): 15 min | pH after reconstitution ([1]; TBST 1M, 10 mL): 7.100 | Time needed to dissolve (±) ([1]; Tris 0.025M, Ad 10 g, volume as in the dissolves column of the same line): <1 min and 2 min | pH after reconstitution ([1]; Tris 0.1M): 4.195 | 325 mg ASA dissolves? ([1]; Tris 0.25M, pH of medium 10.701, 10 mL): YES - | pH after reconstitution ([1]; Tris 0.25M, 10 mL): 7.616 | 325 mg ASA dissolves? ([1]; Tris 0.5M, pH of medium 10.814, 5 mL): YES - | Time needed to dissolve (±) ([1]; Tris 0.5M, 5 mL): 3 min | pH after reconstitution ([1]; Tris 0.5M, 5 mL): 7.592 | 325 mg ASA dissolves? ([1]; Tris 1M, pH of medium 11.047, 5 mL): YES - | Time needed to dissolve (±) ([1]; Tris 1M, 5 mL): 3 min | pH after reconstitution ([1]; Tris 1M, 5 mL): 8.550 | 325 mg ASA dissolves? If yes, in 5 or 10 mL? ([1]; buffer — , strength —, purified water Ad 10 g): Yes - 10 mL | Time needed to dissolve (±) [1, 5]: 30 min | pH after reconstitution [1, 5]: 8.125 | pH 48 hours after addition of ASA ([2]; 96% Ethanol, no prior pH adjustment (pH 7.06 before)): 3.09 | pH 48 hours after addition of ASA ([2]; Acidified 96% ethanol (pH 2.30 before)): 2.24 | pH 48 hours after addition of ASA ([2]; Acidified tert-butyl alcohol (pH 2.01 before)): 1.93 | pH 48 hours after addition of ASA ([2]; Acidified water (0.001N HCl) (pH 2.47 before)): 2.37 | pH 48 hours after addition of ASA ([2]; Acidified water + 60 g/L mannitol (pH 2.50 before)): 2.36 | pH 48 hours after addition of ASA ([2]; Milli-Q Water, no prior pH adjustment (pH 5.41 before)): 2.62 | pH 48 hours after addition of ASA ([2]; Tert-butyl alcohol, no prior pH adjustment (pH 4.89 before)): 3.40 | pH 48 hours after addition of ASA ([2]; Water + 60 g/L mannitol, no prior pH adjustment (pH 6.03 before)): 2.61 | degradation of acetyl salicylic acid [3]: no degradation | solubility thermodynamic at 1 h ([4]; 60 g/L mannitol solution, saline or isotonic, 60 g/L mannitol, without pH adjustment): 3.09 mg/mL (≈ 17.2 mM) | Individual concentration at saturation (Cs), Aspirin (A) ([4]; 60 g/L mannitol, without pH adjustment): 2.868 mg/mL and 2.484 mg/mL | Cs (mean) ([4]; Acidified 60 g/L mannitol): 1.787 mg/mL | Cs (mean) ([4]; Acidified ethanol): 142.678 mg/mL | Individual concentration at saturation (Cs), Aspirin (A) ([4]; Acidified water): 1.924 mg/mL and 1.912 mg/mL | Individual concentration at saturation (Cs), Aspirin (A) ([4]; Water, without pH adjustment): 3.429 mg/mL and 3.423 mg/mL | solubility thermodynamic at 1 h ([4]; acidified 60 g/L mannitol solution, saline or isotonic, Acidified 60 g/L mannitol): 1.78 mg/mL (≈ 9.85 mM) | solubility thermodynamic at 1 h ([4]; acidified water, aqueous buffer, Acidified water): 1.89 mg/mL (≈ 10.5 mM) | solubility thermodynamic at 1 h ([4]; water, Water, without pH adjustment): 3.09 mg/mL (≈ 17.2 mM)
Structure (SMILES): CC(=O)Oc1ccccc1C(=O)O [ASA, Acetyl salicylic acid]
Individual concentration at saturation (Cs), Aspirin (A) ([4]; Acidified ethanol): 143.526 mg/mL and 142.299 mg/mL and 141.593 mg/mL | Individual concentration at saturation (Cs), Aspirin (A) ([4]; Acidified tert-butyl alcohol): 48.73 mg/mL and 48.156 mg/mL and 48.453 mg/mL | Individual concentration at saturation (Cs), Aspirin (A) ([4]; Ethanol, without pH adjustment): 158.430 mg/mL and 163.027 mg/mL and 160.432 mg/mL | Individual concentration at saturation (Cs), Aspirin (A) ([4]; Tert-butyl alcohol, without pH adjustment): 22.768 mg/mL and 23.150 mg/mL and 22.889 mg/mL
